Where a SMILES comes first, the peptide text is derived from it.
How the values were obtained:
Format in all cases: in vivo, mouse
[1] = test system: layer 5 pyramidal neurons of motor cortex, MeCP2 knockout; assay: Golgi staining, cortical spine density (Example 10); settings: P28 mice; knockout with treatment
Method: Samples (<1 cm) from P28 mice are fixed in 10% formalin and 3% potassium bichromate for 24 hours. Tissue is then transferred into 2% silver nitrate for 2 days in the dark at room temperature. Sections from these samples are then cut at 50 μm thickness into distilled water. Sections corresponding to motor cortex are mounted onto slides, air dried for 10 minutes, and then dehydrated through sequential rinses of 95% alcohol, 100% alcohol, and xylene, and then sealed with a coverslip. Images re acquired at 10× (whole cell) and 100× (spine imaging) using a Zeiss Pascal 5 Exciter confocal microscope. We use Golgi staining to label neurons sparsely and distinctly, and applied high-resolution confocal imaging to measure dendritic spine density and morphology in the labelled cells, restricting analysis to layer 5 pyramidal neurons in sections of motor cortex from critical period mice (P28). While low-magnification imaging clearly delineates the extent of the dendrites of the pyramidal cells we use higher magnifications to count synaptic contacts and determine the morphological class of each spine. We classify spines as either large and bulbous (“mushroom”, M), short and stubby (“stubby”, S), short and thin (“thin”, T) or filopodia (F).

adult MeCP2+/- mice = assay: Ocular dominance plasticity, optical imaging (Example 10); settings: 4 days monocular deprivation, daily i.p.
Method: Adult (>P60) wild type (SVEV or BL6) and MeCP2 (+/−) mutant females (BL6) are used for this experiment. The wild type control group is composed of both wild type littermates of MeCP2+/− females or wild type age matched SVEV females. For monocular deprivation, animals are anesthetized with Avertin (0.016 ml/g) and the eyelids of one eye is sutured for 4 days. Prior to imaging, the suture is removed and the deprived eye re-opened. Only animals in which the deprivation sutures are intact and the condition of the deprived eye appears healthy are used for the imaging session. For G-2-MePE signaling activation, a solution containing G-2-MePE is injected intra-peritoneally (IP) daily for the entire period of deprivation. For the imaging sessions mice are anesthetized with urethane (1.5 g/kg; 20% of the full dosage is administered IP each 20-30 minutes up to the final dosage, 0.02 ml of cloroprothixene 1% is also injected together with the first administration). The skull is exposed and a custom-made plate is glued on the head to minimize movement. The skull is thinned over V1 with a dremel drill and covered with an agarose solution in saline (1.5%) and a glass coverslip. During the imaging session, the animal is constantly oxygenated, its temperature maintained with a heating blanket and the eyes periodically treated with silicone oil; physiological conditions are constantly monitored. […]

fmr1 knockout mice = assay: Successive alleys test, fmr1 knockout mice; settings: 100 mg/kg i.p. 28 days
Method: G-2-MePE was administered at the dose of 100 mg/kg i.p. in 0.1 ml saline, once daily for 28 days. Vehicle-treated animals were injected with 0.1 ml saline daily for 28 days. Thereafter, drug or vehicle treatments were stopped and animals were tested on successive days until all tests were completed. Finally, the animals were sacrificed for determining expression of pAkt and pERK
The successive alleys test was used to assess the effects of G-2-MePE on anxiety in the fmr1 KO mice. The apparatus consists of four successive, increasingly anxiogenic, linearly connected alleys (each succeeding alley is painted a lighter colour, has lower walls and/or is narrower than the previous alley). Animals were placed at the closed end of alley 1, facing the end wall. The latency to first enter each alley, the amount of time spent in each alley, and the number of entries into each alley was recorded during a total test time of 300 s.

ERK1/2 = assay: Western blot of ERK and phosphorylated ERK; settings: 100 mg/kg 4 weeks, 12 days after last injection
Method: Phosphorylated Extracellular Signal-Regulated Protein Kinase (ERK) and Protein Kinase B (Akt) expression was measured by Western blot analysis in lymphocytes from fmr1 KO and wild-type animals administered ether vehicle or G-2MePE (100 mg/kg, i.p.; 28 days) treated in the behavior experiments as previously described (Lopez Verrilli et al. 2009). ERK is a classical MAPK signal transduction protein, responsible for growth factor transduction, proliferation, cytokine response to stress and apoptosis. […]
To conduct the western blots, antibodies were used against Akt ( 1/1000) (Cell Signaling), ERK1/2 ( 1/2000) (Cell Signaling), antiphospho-Akt ( 1/1000) and antiphospho-ERK ( 1/2000) (Cell Signaling). Total Akt and ERK 1/2 protein content (phosphorylated) were evaluated by blotting membranes with antiphospho-Akt ( 1/1000) and antiphospho-ERK antibodies ( 1/2000) (Cell Signaling). Akt or ERK phosphorylation was normalized to protein content in the same sample and expressed as % of change with respect to basal conditions, considering basal levels as 100%. Protein loading was evaluated by stripping and re-blotting membranes with b-actin antibody ( 1/1000) (Sigma Chemical Co.). […]

C[C@@]1(C(=O)N[C@@H](CCC(=O)O)C(=O)O)CCCN1C(=O)CN [Example G-2-MePE, Glycyl-L-2-methylprolyl-L-glutamic acid] (HELM PEPTIDE1{G.[C[C@@]1(C(=O)[*:2])CCCN1[*:1]].E}$$$$V2.0)
density of spines per unit branch [1]: largely ameliorated
ocular dominance plasticity (adult MeCP2+/- mice): reduces the OD plasticity
pattern of time spent in successive alleys (fmr1 knockout mice): reinstated the normal pattern of behavior
phosphorylated ERK1/2 (pERK) (ERK1/2; fmr1 KO vs vehicle, p<0.05): significantly reduced
total ERK expression levels (ERK1/2; fmr1 KO): increase in ERK expression levels

— patent publication US20150224164A1, “TREATMENT OF AUTISM SPECTRUM DISORDERS USING GLYCYL-L-2-METHYLPROLYL-L-GLUMATIC ACID” (Neuren Pharmaceuticals Limited, priority 2013, published 2015)
